This note sets out measurements from ChEMBL document CHEMBL5505976, “Identification of the exosomal PD-L1 inhibitor to promote the PD-1 targeting therapy of gastric cancer” (Eur J Med Chem, 2024).

Data set [1] has as its target Programmed cell death 1 ligand 1 (Homo sapiens, UniProt Q9NZQ7). The data set can be described thus: Inhibition of exosomal PD-L1 (unknown origin) generation preincubated with compound for 24 hrs followed by strep-d2 acceptor bead addition and measured after 30 mins by HTRF assay. A general note: In TR-FRET formats the signal depends on donor and acceptor labels being close together.

Data set [2] concerns MFC. The data set can be described thus: Antitumor activity against mouse MFC cells transfected with OVA implanted in female mouse assessed as increase in IL-2 level in tumor at 25 mg/kg, po in presence of PD-1 antibody by ELISA analysis. The class given is functional, organism-based.
Data set [3] is described as follows: AUC (0 to infinity) in Sprague-Dawley rat at 25 mg/kg, po measured upto 24 hrs by LC-MS/MS analysis. Type of data set: ADME, organism-based. As to conditions: in vivo.
Data set [4] concerns MGC-803. The data set can be described thus: Sensitization of human MGC-803 cells to CD8-positive T cell assessed as increase in IFN-gamma level by ELISA analysis. The class given is functional, cell-based. As to conditions: dose <= 400.0 nM. Background: An ELISA detects its analyte on a solid surface through an enzyme-linked reagent.
Data set [5] deals with MGC-803. The data set can be described thus: Sensitization of human MGC-803 cells to CD8-positive T cell assessed as increase in activated T cells measured for 48 hrs in presence of Nivolumab by MTS assay. The class given is functional, cell-based.
Data set [6] deals with MGC-803. The data set can be described thus: Sensitization of human MGC-803 cells to CD8-positive T cell assessed as increase in activated T cells at 400 nM measured for 48 hrs in presence of recombinant PD-1 by MTS assay. Type of data set: functional, cell-based. In general terms: Formazan colour is commonly taken as a measure of viable cells.
Data set [7] is described as follows: Toxicity in female mouse assessed as effect on body weight at 25 mg/kg, po in presence of anti-mouse PD-1 antibody. The class given is organism-based. As to conditions: in vivo.
Another data set concerns T-cell. The data set can be described thus: Cytotoxicity against mouse T cell at 100 uM measured for 24 hrs by MTS assay. The class given is toxicity, cell-based.
Data set [8] in a line: Toxicity in female mouse xenografted with mouse MFC cells transfected with OVA assessed as lung damage at 25 mg/kg, po by H and E staining based analysis. As to conditions: in vivo. The class given is organism-based.
Data set [9] is described as follows: Toxicity in female mouse xenografted with mouse MFC cells transfected with OVA assessed as spleen damage at 25 mg/kg, po by H and E staining based analysis. As to conditions: in vivo. Type of data set: organism-based.
Data set [10] is described as follows: Toxicity in female mouse xenografted with mouse MFC cells transfected with OVA assessed as kidney damage at 25 mg/kg, po by H and E staining based analysis. The class given is organism-based. As to conditions: in vivo.
Data set [11] has as its system MGC-803. The data set can be described thus: Sensitization of human MGC-803 cells to CD8-positive T cell assessed as increase in IL-2 level by ELISA analysis. Type of data set: functional, cell-based. As to conditions: dose <= 400.0 nM.
Data set [12] has as its system MFC. The data set can be described thus: Antitumor activity against mouse MFC cells implanted in female mouse assessed as tumor growth inhibition at 25 mg/kg, po. As to conditions: read-out: TGI.
The nature of data set [13]: Cmax in Sprague-Dawley rat at 25 mg/kg, po measured upto 24 hrs by LC-MS/MS analysis. Type of data set: ADME, organism-based. As to conditions: in vivo.
Data set [14] has as its system MGC-803. The data set can be described thus: Effect on exosomes generation in human MGC-803 cells at 400 nM measured for 24 hrs. Type of data set: functional, cell-based.
Data set [15] concerns MFC. The data set can be described thus: Antiproliferative activity against mouse MFC cells transfected with OVA assessed as inhibition of cell proliferation measured for 48 hrs in presence of anti-mouse PD-1 antibody by MTS assay. The class given is functional, cell-based.
For data set [16], the system named is MFC. The data set can be described thus: Antitumor activity against mouse MFC cells transfected with OVA implanted in female mouse assessed as increase in TNF-alpha level in tumor at 25 mg/kg, po in presence of PD-1 antibody by ELISA analysis. The class given is functional, organism-based.
Data set [17] deals with MFC. The data set can be described thus: Antitumor activity against mouse MFC cells implanted in female mouse assessed as tumor growth inhibition at 25 mg/kg, po in presence of anti-mouse PD-1. As to conditions: read-out: TGI.
Data set [18] in a line: Half life in Sprague-Dawley rat at 25 mg/kg, po measured upto 24 hrs by LC-MS/MS analysis. As to conditions: in vivo. The class given is ADME, organism-based.
Data set [19] in a line: Toxicity in female mouse xenografted with mouse MFC cells transfected with OVA assessed as liver damage at 25 mg/kg, po by H and E staining based analysis. Type of data set: organism-based. As to conditions: in vivo.
Data set [20] is described as follows: Toxicity in female mouse xenografted with mouse MFC cells transfected with OVA assessed as heart damage at 25 mg/kg, po by H and E staining based analysis. As to conditions: in vivo. Type of data set: organism-based.
The subject of data set [21] is MGC-803. The data set can be described thus: Sensitization of human MGC-803 cells to CD8-positive T cell assessed as increase in TNF-alpha level by ELISA analysis. As to conditions: dose <= 400.0 nM. Type of data set: functional, cell-based.
Data set [22] in a line: Tmax in Sprague-Dawley rat at 25 mg/kg, po measured upto 24 hrs by LC-MS/MS analysis. Type of data set: ADME, organism-based. As to conditions: in vivo.
Data set [23] can be described thus: Clearance in Sprague-Dawley rat at 25 mg/kg, po measured upto 24 hrs by LC-MS/MS analysis. As to conditions: in vivo. The class given is ADME, organism-based.
Data set [24] deals with MFC. The data set can be described thus: Antitumor activity against mouse MFC cells implanted in female mouse assessed as reduction in tumor weight at 25 mg/kg, po in presence of anti-mouse PD-1. The class given is functional, organism-based.
In data set [25] the test system is MFC. The data set can be described thus: Antitumor activity against mouse MFC cells transfected with OVA implanted in female mouse assessed as decrease in accumulation of exosomal PD-L1 in tumor at 25 mg/kg, po. The class given is functional, organism-based.
In another data set the test system is PDC-GC-919. The data set can be described thus: Sensitization of human poor differentiated gastric cancer PDC-GC-919 cells to CD8-positive T cell assessed as increase in activated T cells measured for 48 hrs by MTS assay. The class given is functional, cell-based.
For data set [26], the system named is MGC-803. The data set can be described thus: Inhibition of exosomal PD-L1 expression in human MGC-803 cells incubated for 24 hrs by Western blot analysis. Type of data set: functional, cell-based. As to conditions: dose <= 400.0 nM.
In data set [27] the test system is MFC. The data set can be described thus: Antitumor activity against mouse MFC cells transfected with OVA implanted in female mouse assessed as increase in IFN-gamma level in tumor at 25 mg/kg, po in presence of PD-1 antibody by ELISA analysis. Type of data set: functional, organism-based.
The subject of a further data set is PDC-GC-239. The data set can be described thus: Sensitization of human poor differentiated gastric cancer PDC-GC-239 cells to CD8-positive T cell assessed as increase in activated T cells measured for 48 hrs by MTS assay. Type of data set: functional, cell-based.
Data set [28] concerns MFC. The data set can be described thus: Antitumor activity against mouse MFC cells transfected with OVA implanted in female mouse assessed as decrease in accumulation of exosomal PD-L1 in tumor at 25 mg/kg, po in presence of anti-PD-1 antibody. Type of data set: functional, organism-based.

Active and inactive are the calls of the source. No cut-off for these calls is given here. Some results are limits rather than exact numbers.

Sequence of Programmed cell death 1 ligand 1 (Q9NZQ7 whole entry): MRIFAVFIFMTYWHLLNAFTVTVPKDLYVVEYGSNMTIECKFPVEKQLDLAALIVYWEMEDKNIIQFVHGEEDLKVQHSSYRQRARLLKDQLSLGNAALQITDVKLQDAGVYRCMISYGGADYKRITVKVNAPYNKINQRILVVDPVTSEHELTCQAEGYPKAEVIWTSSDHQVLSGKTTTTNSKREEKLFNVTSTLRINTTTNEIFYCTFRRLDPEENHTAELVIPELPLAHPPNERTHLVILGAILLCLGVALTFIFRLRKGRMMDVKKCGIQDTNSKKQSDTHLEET

Broadly, the IC50 is the point on the concentration scale where inhibition reaches its midpoint. As for `O=C(NCCN1CCOCC1)c1ccc(-c2cncnc2)cc1`, the IC50 in data set [1] came to 0.571 µM.

A word on the AUC: it is concentration integrated over time. Low values mean less exposure, high ones more exposure. By Cmax is commonly meant the highest concentration seen after dosing. The half-life is how long it takes for the measured level to halve. By Tmax is commonly meant the time at which the peak concentration occurs. For `O=C(NCCN1CCOCC1)c1ccc(-c2cnc3[nH]ccc3c2)cc1`, the result in the data set on MFC [2], in the data set with MGC-803 [5], with MGC-803 [6], in the data set with MGC-803 [14], in the data set on MFC [15] and in the data set on MFC [16] was Active. The outcome with MFC [24], in the data set on MFC [25], in the data set on PDC-GC-919, in the data set with MFC [27], with PDC-GC-239 and in the data set on MFC [28] was Active. The molecule further gave an AUC in data set [3] of 1.66851 µg·h/mL. The Activity result in the data set on MGC-803 [4] was “Dose-Dependent Effect”; in data set [7], “Non-Toxic”; with T-cell it was “Non-Toxic”; in data set [8] it was “Non-Toxic”; in [9], “Non-Toxic”; in data set [10], “Non-Toxic”. Further, the Activity entry was “Dose-Dependent Effect” in the data set on MGC-803 [11], “Non-Toxic” in data set [19], “Non-Toxic” in [20] and “Dose-Dependent Effect” in the data set with MGC-803 [21]. For the same molecule, the IC50 in data set [1] amounted to 0.108 µM. Further, the inhibition in vivo at 25 mg/kg in the data set with MFC [12] was determined as 32%; in the data set with MFC [17] it was 69%. In addition, in data set [13], the Cmax was determined as 1.21 µg/mL. The half-life in [18] is 2.73 h. The Tmax in data set [22] is 0.25 h. Also, the CL in [23] was determined as 35.24 L/h/kg. For the same molecule, the inhibition result with MGC-803 [26] is “Dose-Dependent Effect”.

With `O=C(NCCN1CCOCC1)c1ccc(-c2ccc3c(c2)OCCO3)cc1`, in [1], the IC50 was 0.153 µM.

For `Cn1ccc2cc(-c3ccc(C(=O)NCCN4CCOCC4)cc3)ccc21`, in data set [1], the IC50 is 0.217 µM.

Turning to `O=C(NCCN1CCOCC1)c1ccc(-c2ccn(C3CCCCO3)n2)cc1` (centres undefined), in [1], the concentration for half-maximal inhibition (IC50) came out at 2.59 µM.

With `Cn1nccc1-c1ccc(C(=O)NCCN2CCOCC2)cc1`, the IC50 in [1] was 0.286 µM.

For the molecule `O=C(NCCN1CCOCC1)c1ccc(-c2ccc3cc4ccccc4cc3c2)cc1`, in [1], the IC50 is over 10 µM.

On to `COc1ccc(-c2ccc(C(=O)NCCN3CCOCC3)cc2)cc1F`, for which the IC50 in data set [1] was 0.623 µM.

Consider `O=C(NCCN1CCOCC1)c1ccc(-c2ccc(C(F)(F)F)cc2)cc1`, for which the IC50 in data set [1] was found to be 6.82 µM.

As to `COc1ccc(-c2ccc(C(=O)NCCN3CCOCC3)cc2)cn1`, the IC50 in [1] was found to be 0.669 µM.

Regarding `CCOC(C)n1cc(-c2ccc(C(=O)NCCN3CCOCC3)cc2)cn1` (centres undefined), the IC50 in [1] is 0.753 µM.

Take `O=C(NCCN1CCOCC1)c1ccc(Cl)cc1` [MOCLOBEMIDE]: the half-inhibitory concentration (IC50) in [1] is 3.87 µM.

In the case of `O=C(NCCN1CCOCC1)c1ccc(-c2ccc(F)cc2)cc1`, the IC50 in [1] is 2.24 µM.

With `O=C(NCCN1CCOCC1)c1ccc(-c2ccccc2)cc1`, the IC50 in [1] came out at 1.54 µM.

For `COc1ncc(-c2ccc(C(=O)NCCN3CCOCC3)cc2)cn1`, the IC50 in data set [1] came out at 0.461 µM.

In the case of `Nc1ccc(-c2ccc(C(=O)NCCN3CCOCC3)cc2)cc1`, in data set [1], the IC50 worked out at 0.336 µM.

Consider `CC(C)(C)OC(=O)Nc1ccc(-c2ccc(C(=O)NCCN3CCOCC3)cc2)cc1`, for which the IC50 in data set [1] turned out to be 0.681 µM.

For the molecule `O=C(NCCN1CCOCC1)c1ccc(-c2cc3ccccc3s2)cc1`, the IC50 in data set [1] was 0.648 µM.

Turning to `N#Cc1ccc(-c2ccc(C(=O)NCCN3CCOCC3)cc2)cc1`, the IC50 in data set [1] is 0.498 µM.
